Measurements reported in patent US7851606B2, “Negatively charged minor groove binders” (Elitech Holding B.V., priority 2002, dated 2010).
{CDPI3-SO3} = negatively charged sulfonated CDPI3 minor groove binder; {CDPI4-(SO3)2} = disulfonated CDPI4 minor groove binder; {CDPI3(C)} = code of the source, not defined here; {CDPI3(N)} = code of the source, not defined here

Assays:
[1] = test system: complementary targets that contain A/C mismatch at positions 5, 6, 7 and 8; assay: Mismatch discrimination of oligonucleotide conjugates 5′-CCAAAATTAC-X^11-3′ hybridized to complementary targets (Example 4); assay type: binding; details: for ΔΔG° between match and mismatch: calculated at 50° C.
Experimental: This example illustrates conjugates of the present invention to perform mismatch discrimination.
Oligonucleotide conjugates 5′-CCAAAATTAC-X^11-3′ (SEQ ID NO:1), where X ^11 is a minor groove binder of FIG. 1, were hybridized to different complementary targets that contain A/C mismatch at positions 5, 6, 7 and 8, relative to the attached minor groove binder.
The relative free energy difference (ΔΔG°) between match and mismatch at positions 5, 6, 7 and 8 were calculated at 50° C. and are listed in Table below. The ΔΔG° values were calculated as described in U.S. application Ser. No. 09/796,988.
Table of ΔΔG° between match and mismatch calculated at 50° C. for different conjugates.

[2] = test system: matched complement of ODN # 1; assay: Thermodynamic properties / mismatch discrimination of 3′-conjugated GGTTTTAATG-X″ sequences (Example 5, FIG. 2); assay type: binding; details: C/A mismatch at positions 5, 6, 7 and 8; 50° C.; PCR buffer; oligonucleotide 5×10^−7M; in words
Experimental: Thermodynamic properties of 3′ -conjugated, where X″ represents the attached minor groove binder which is either CDPI3 (C), CDPI3 (N) and CDPI4-(SO3^−)2. The parameters were determined at PCR buffer, where the oligonucleotide concentration was 5×10^−7M. The sequences below were hybridized to matched complement of ODN # 1. The relative free energy difference (ΔΔG°) between match and mismatch at positions 5, 6, 7 and 8 were calculated at 50° C. and plotted in FIG. 2. The bold C base in the sequences indicates the position of the C/A mismatch.

Substance	ΔΔG° between match and mismatch ([1]; A/C mismatch position 5) [kcal/mol]	ΔΔG° between match and mismatch ([1]; A/C mismatch position 6) [kcal/mol]	ΔΔG° between match and mismatch ([1]; A/C mismatch position 7) [kcal/mol]	ΔΔG° between match and mismatch ([1]; A/C mismatch position 8) [kcal/mol]	mismatch discrimination performance versus the other conjugates in the Table ([1]; in words)	mismatch discrimination (ΔΔG° plotted in FIG. 2) [2]
CDPI3 (C): Oligonucleotide conjugate 5′-CCAAAATTAC-X^11-3′, X^11 being the minor groove binder CDPI3 (C) of FIG. 1 (3' {CDPI3(C)}, sugars by position and backbone not given here)	4.87	6.22	6.24	5.52	–	–
CDPI3—SO3^−: Oligonucleotide conjugate 5′-CCAAAATTAC-X^11-3′, X^11 being the negatively charged minor groove binder CDPI3-SO3^− of FIG. 1 (3' {CDPI3-SO3}, sugars by position and backbone not given here)	4.26	5.16	5.55	4.32	comparable to the other conjugates	–
CDPI3 (N): Oligonucleotide conjugate 5′-CCAAAATTAC-X^11-3′, X^11 being the minor groove binder CDPI3 (N) of FIG. 1 (3' {CDPI3(N)}, sugars by position and backbone not given here)	5.28	6.32	5.55	5.51	–	–
CDPI4-(SO3^−)2: 3′-conjugated oligonucleotide GGTTTTAATG-X″, X″ being the attached minor groove binder CDPI4-(SO3^−)2 (3' {CDPI4-(SO3)2}, sugars by position and backbone not given here)	–	–	–	–	–	comparable mismatch discrimination
